IC50 data for ten compounds are collected here from US20260234165A1, “MACROCYCLIC COMPOUNDS, PREPARATION METHOD THEREFOR, AND USE THEREOF” (GENFLEET THERAPEUTICS (SHANGHAI) INC., priority 2004, published 2026).

The structures appear in SMILES notation. Read-outs that look alike come from different tables or passages of the source.

Assay [1] relates to AsPC-1 cells (KRAS G12D mutation). Description: 3D cell proliferation assay (CellTiter Glo-3D), AsPC-1. The format is cell-based, human. Conditions: medium with 2% FBS, read-out: AsPC-1 AP IC50. The method in brief: (§1)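 Five-day treatment of NCI-H441 or AsPC-1 cells (800/well, 2% FBS RPMI-1640, 0.1% DMSO) with graded compound concentrations; ATP content by CellTiter-Glo 3D; IC50 fitted.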

For a further assay, the system named is NCI-H441 cells. Description: 3D cell proliferation assay (CellTiter Glo-3D), NCI-H441. It counts as cell-based, human. Conditions: medium with 2% FBS, read-out: H441 AP IC50. The method in brief:
as §1

The mark [2] stands for this setting: Homo sapiens, ASPC1, 3D cell proliferation (CellTiter Glo-3D).
Where [3] appears, read: Homo sapiens, NCI-H441, 3D cell proliferation (CellTiter Glo-3D).
The mark [4] stands for this setting: 3D cell proliferation (CellTiter Glo-3D).

In the case of `CCn1c(-c2cc(N3CCN4CC5(CC5)OC[C@@H]4C3)cnc2[C@H](C)OC)c2c3cc(ccc31)-c1csc(n1)C[C@H](NC(=O)[C@H]1[C@H](C)[C@@H]1C)C(=O)N1CCC[C@H](N1)C(=O)OCC1(CC1)C2` (atropisomer, axis not shown; (Ra)) [Compound Z13], the IC50 in assay [1] (setting [2]) stood at 5 nM; in the assay with NCI-H441 cells (setting [3]) it was 1.2 nM.
As to `CCn1c(-c2cc(C#CCN3CCS(=O)(=O)CC3)cnc2[C@H](C)OC)c2c3cc(ccc31)-c1csc(n1)C[C@H](Nc1nnc3cc(C)ccn13)C(=O)N1CCC[C@H](N1)C(=O)OCC(C)(C)C2` (atropisomer, axis not shown; (Ra)) [Compound Z911, (6^3S,4S,Z)—(Ra)-1^2-(5-(3-(1,1-dioxidothiomorpholino)prop-1-yn-1-yl)-2-((S)-1-methoxyethyl)pyridin-3-yl)-1^1-ethyl-10,10-dimethyl-4-((7-methyl-[1,2,4]triazolo[4,3-a]pyridin-3-yl)amino)-6^1,6^2,6^3,6^4,6^5,6^6-hexahydro-1^1H-8-oxa-2(4,2)-thiazola-1(5,3)-indola-6(1.3)-pyridazinacycloundecaphane-5,7-dione], the figures for the IC50 (in assay [1] (setting [2]); in the assay on NCI-H441 cells (setting [3])) were 2.27 nM and 1.16 nM, respectively.
As for `CCn1c(-c2cc(C#CCN3CCCN(C)CC3)cnc2[C@H](C)OC)c2c3cc(ccc31)-c1csc(n1)C[C@H](NC(=O)[C@H]1[C@H](C)[C@@H]1C)C(=O)N1CCC[C@H](N1)C(=O)OCC(C)(C)C2` (atropisomer, axis not shown; (Ra)) [Compound Z802, (1r,2R,3S)—N-((6^3S,4S,Z)-1^2-(5-(3-(4-methyl-1,4-diaza-1-yl)prop-1-yn-1-yl)-(Ra)-2-((S)-1-methoxyethyl)pyridin-3-yl)-1^1-ethyl-10,10-dimethyl-5,7-dioxo-6^1,6^2,6^3,6^4,6^5,6^6-hexahydro-1^1H-8-oxa-2(4,2)-thiazola-1(5,3)-indola-6(1,3)-pyridazinacycloundecaphane-4-yl)-2,3-dimethylcyclopropane-1-carboxamide], the IC50 stood at 0.34 nM in assay [1] (setting [2]) and 0.26 nM in the assay on NCI-H441 cells (setting [3]).
Regarding `CCn1c(-c2cc(C#CCN3CCC(C(F)(F)F)CC3)cnc2[C@H](C)OC)c2c3cc(ccc31)-c1csc(n1)C[C@H](NC(=O)[C@H]1[C@H](C)[C@@H]1C)C(=O)N1CCC[C@H](N1)C(=O)OCC(C)(C)C2` (atropisomer, axis not shown; (Ra)) [Compound Z778], the half-maximal inhibitory concentration (IC50) is 2.39 nM in assay [1] (setting [2]) and 1.14 nM with NCI-H441 cells (setting [3]).
In the case of `CCn1c(-c2cc(N3CCN(CCS(C)(=O)=O)CC3)cnc2[C@H](C)OC)c2c3cc(ccc31)-c1csc(n1)C[C@H](NC(=O)[C@H]1[C@H](C)[C@@H]1C)C(=O)N1CCC[C@H](N1)C(=O)OCC1(CC1)C2` (single isomer, unassigned) [Compound Z367], the 50% inhibitory concentration (IC50) in assay [1] (setting [2]) turned out to be 13.5 nM; in the assay on NCI-H441 cells (setting [3]), 2.14 nM.
With `CCn1c(-c2cc(C#CCN3C4CCC3COC4)cnc2[C@H](C)OC)c2c3cc(ccc31)-c1csc(n1)C[C@H](NC(=O)[C@H]1[C@H](C)[C@@H]1C)C(=O)N1CCC[C@H](N1)C(=O)OCC(C)(C)C2` (atropisomer, axis not shown; (Ra)) [Compound Z711, (1r,2R,3S)—N-((6^3S,4S,Z)—(Ra)-1^2-(5-(3-(3-oxa-8-azabicyclo[3.2.1]octan-8-yl)prop-1-yn-1-yl)-2-((S)-1-methoxyethyl)pyridin-3-yl)-1^1-ethyl-10,10-dimethyl-5,7-dioxo-6^1,6^2,6^3,6^4,6^5,6^6-hexahydro-1^1H-8-oxa-2(4,2)-thiazola-1(5,3)-indola-6(1,3)-pyridazinacycloundecaphane-4-yl)-2,3-dimethylcyclopropane-1-carboxamide], the IC50 was 0.3 nM in assay [1] (setting [4]) and 0.27 nM in the assay with NCI-H441 cells (setting [4]).
Take `CCn1c(-c2cc(C#C[C@@H]3COCCN3C)cnc2[C@H](C)OC)c2c3cc(ccc31)-c1csc(n1)C[C@H](NC(=O)[C@H]1[C@H](C)[C@@H]1C)C(=O)N1CCC[C@H](N1)C(=O)OCC(C)(C)C2` (atropisomer, axis not shown; (Ra)) [Compound Z672, (1r,2R,3S)—N-((6^3S,4S,Z)-1^1-ethyl-(Ra)-1^2-(2-((S)-1-methoxyethyl)-5-(((R)-4-methylmorpholin-3-yl)ethynyl)pyridin-3-yl)-10,10-dimethyl-5,7-dioxo-6^1,6^2,6^3,6^4,6^5,6^6hexahydro-1^1H-8-oxa-2(4,2)-thiazola-1(5,3)-indola-6(1,3)-pyridazinacycloundecaphane-4-yl)-2,3-dimethylcyclopropane-1-carboxamide]: the values for the IC50 (in assay [1] (setting [2]); in the assay on NCI-H441 cells (setting [3])) were 0.73 nM and 0.3 nM, respectively.
With `CCn1c(-c2cc(C#CCN3CCOC[C@H]3C)cnc2[C@H](C)OC)c2c3cc(ccc31)-c1csc(n1)C[C@H](NC(=O)[C@H]1[C@H](C)[C@@H]1C)C(=O)N1CCCC(N1)C(=O)OCC(C)(C)C2` (atropisomer, axis not shown; (Ra)) [Compound Z813], the IC50 in assay [1] (setting [4]) turned out to be 0.18 nM; in the assay with NCI-H441 cells (setting [4]), 0.15 nM.
On to `CCO[C@@H](C)c1ncc(N2CCN(CCS(C)(=O)=O)CC2)cc1-c1c2c3cc(ccc3n1CC)-c1csc(n1)C[C@H](NC(=O)[C@H]1[C@H](C)[C@@H]1C)C(=O)N1CCC[C@H](N1)C(=O)OCC1(CC1)C2` (single isomer, unassigned) [Compound Z378-1], for which the IC50 in assay [1] (setting [2]) is 14.1 nM; in the assay on NCI-H441 cells (setting [3]) it was 3.62 nM.
Consider `CCn1c(-c2cc(C#CCN3CCS(=O)(=O)CC3)cnc2[C@H](C)OC)c2c3cc(ccc31)-c1csc(n1)C[C@H](NC(=O)[C@H]1[C@H](C)[C@@H]1C)C(=O)N1CCC[C@H](N1)C(=O)OCC(C)(C)C2` (atropisomer, axis not shown; (Ra)) [Compound Z838, (1r,2R,3S)—N-((6^3S,4S,Z)—(Ra)-1^2-(5-(3-(1,1-dioxidothiomorpholino)prop-1-yn-1-yl)-2-((S)-1-methoxyethyl)pyridin-3-yl)-1^1-ethyl-10,10-dimethyl-5,7-dioxo-6^1,6^2,6^3,6^4,6^5,6^6-hexahydro-1^1H-8-oxa-2(4,2)-thiazola-1(5,3)-indola-6(1,3)-pyridazinacycloundecaphane-4-yl)-2,3-dimethylcyclopropane-1-carboxamide], for which the IC50 in assay [1] (setting [2]) was found to be 0.03 nM; with NCI-H441 cells (setting [3]), 0.06 nM.
